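Growth conditions: 96-well plates. Treatment: test compound, 48 hours, 5 concentrations. Analysis: linear interpolation between bracketing concentrations; unreached endpoints set to highest concentration. Here, GI50 denotes the concentration required for 50% inhibition of growth.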 Active and inactive are the calls of the source. Cut-off read from the data, not from the text of the source: active = GI50 up to about 1.1 µM and inactive = higher.
Experiments:
Assay in all cases: growth of human tumour cells (NCI), 48 h
OVCAR-5 = tested on: OVCAR-5
MOLT-4 = tested on: MOLT-4
PC-3 = tested on: PC-3
EKVX = tested on: EKVX
CAKI-1 = tested on: CAKI-1
T47D = tested on: T47D
TK-10 = tested on: TK-10
OVCAR-4 = tested on: OVCAR-4
HOP-62 = tested on: HOP-62
A498 = tested on: A498
RPMI-8226 = tested on: RPMI-8226
K562 = tested on: K562
SK-MEL-5 = tested on: SK-MEL-5
U-251 = tested on: U-251
NCI-H522 = tested on: NCI-H522
786-0 = tested on: 786-0
BT-549 = tested on: BT-549
OVCAR-8 = tested on: OVCAR-8
MDA-MB-231 = tested on: MDA-MB-231

SMILES | GI50 (OVCAR-5) | GI50 (MOLT-4) | GI50 (PC-3) | GI50 (EKVX) | GI50 (CAKI-1) | GI50 (T47D) | GI50 (TK-10) | GI50 (OVCAR-4) | GI50 (HOP-62) | GI50 (A498) | GI50 (RPMI-8226) | GI50 (K562) | GI50 (SK-MEL-5) | GI50 (U-251) | GI50 (NCI-H522) | GI50 (786-0) | GI50 (BT-549) | GI50 (OVCAR-8) | GI50 (MDA-MB-231)
NC(=O)c1cc(N(CCO)CCO)c([N+](=O)[O-])cc1[N+](=O)[O-] | > 100 µM (inactive) | > 100 µM (inactive) | > 100 µM (inactive) | > 100 µM (inactive) | > 100 µM (inactive) | > 100 µM (inactive) | > 100 µM (inactive) | > 100 µM (inactive) | > 100 µM (inactive) | > 100 µM (inactive) | > 100 µM (inactive) | > 100 µM (inactive) | > 100 µM (inactive) | > 100 µM (inactive) | > 100 µM (inactive) | > 100 µM (inactive) | – | – | –
O=c1[nH]c2nccnc2c2c([N+](=O)[O-])cccc12 | > 100 µM (inactive) | > 100 µM (inactive) | 78.9 µM (inactive) | > 100 µM (inactive) | – | 20.5 µM (inactive) | 81.8 µM (inactive) | > 100 µM (inactive) | > 100 µM (inactive) | > 100 µM (inactive) | > 100 µM (inactive) | > 100 µM (inactive) | 88.3 µM (inactive) | > 100 µM (inactive) | 49.9 µM (inactive) | > 100 µM (inactive) | 65.2 µM (inactive) | > 100 µM (inactive) | –
COc1cc(NS(C)(=O)=O)ccc1N1Cc2c[nH]c3ccc4nc(C)cc1c4c23 | > 100 µM (inactive) | 48.5 µM (inactive) | > 100 µM (inactive) | 67.5 µM (inactive) | 26.4 µM (inactive) | – | > 100 µM (inactive) | 49.9 µM (inactive) | 25.9 µM (inactive) | > 100 µM (inactive) | 31.5 µM (inactive) | 26.5 µM (inactive) | 97.7 µM (inactive) | 32.3 µM (inactive) | 26.2 µM (inactive) | 20.7 µM (inactive) | > 100 µM (inactive) | 33 µM (inactive) | 64 µM (inactive)
CSC(=S)Nc1cccc(C)n1 | > 100 µM (inactive) | > 100 µM (inactive) | > 100 µM (inactive) | > 100 µM (inactive) | > 100 µM (inactive) | > 100 µM (inactive) | > 100 µM (inactive) | > 100 µM (inactive) | > 100 µM (inactive) | > 100 µM (inactive) | > 100 µM (inactive) | > 100 µM (inactive) | 76.6 µM (inactive) | > 100 µM (inactive) | > 100 µM (inactive) | > 100 µM (inactive) | – | > 100 µM (inactive) | > 100 µM (inactive)
COC(C)(C)C1=CCC(C)CC1 (centres undefined) | > 100 µM (inactive) | 30 µM (inactive) | > 100 µM (inactive) | > 100 µM (inactive) | > 100 µM (inactive) | – | > 100 µM (inactive) | > 100 µM (inactive) | > 100 µM (inactive) | > 100 µM (inactive) | > 100 µM (inactive) | – | > 100 µM (inactive) | > 100 µM (inactive) | > 100 µM (inactive) | > 100 µM (inactive) | > 100 µM (inactive) | > 100 µM (inactive) | –
O=C(CN1CCCC1=O)CS(=O)(=O)c1ccccc1 | > 100 µM (inactive) | > 100 µM (inactive) | > 100 µM (inactive) | > 100 µM (inactive) | – | – | > 100 µM (inactive) | – | > 100 µM (inactive) | – | > 100 µM (inactive) | > 100 µM (inactive) | > 100 µM (inactive) | > 100 µM (inactive) | > 100 µM (inactive) | > 100 µM (inactive) | > 100 µM (inactive) | > 100 µM (inactive) | –
O=C1CN(c2ccc(Cl)cc2)C(=O)CN1NCNN1CC(=O)N(c2ccc(Cl)cc2)CC1=O | > 100 µM (inactive) | > 100 µM (inactive) | > 100 µM (inactive) | > 100 µM (inactive) | > 100 µM (inactive) | – | > 100 µM (inactive) | > 100 µM (inactive) | > 100 µM (inactive) | > 100 µM (inactive) | > 100 µM (inactive) | – | > 100 µM (inactive) | > 100 µM (inactive) | > 100 µM (inactive) | > 100 µM (inactive) | > 100 µM (inactive) | > 100 µM (inactive) | –
O=C1N[C@@H](COc2ccc(/C=N/c3ccc(CCc4ccc(/N=C/c5ccc(OC[C@@H]6COC(=O)N6)cc5)cc4)cc3)cc2)CO1 | > 100 µM (inactive) | > 100 µM (inactive) | > 100 µM (inactive) | > 100 µM (inactive) | > 100 µM (inactive) | > 100 µM (inactive) | > 100 µM (inactive) | > 100 µM (inactive) | > 100 µM (inactive) | > 100 µM (inactive) | > 100 µM (inactive) | > 100 µM (inactive) | > 100 µM (inactive) | > 100 µM (inactive) | > 100 µM (inactive) | > 100 µM (inactive) | – | > 100 µM (inactive) | > 100 µM (inactive)
COc1ccc(OC)c(CNc2ccc(C(=O)O)cc2)c1 | > 100 µM (inactive) | > 100 µM (inactive) | > 100 µM (inactive) | > 100 µM (inactive) | > 100 µM (inactive) | – | > 100 µM (inactive) | > 100 µM (inactive) | – | > 100 µM (inactive) | > 100 µM (inactive) | > 100 µM (inactive) | > 100 µM (inactive) | > 100 µM (inactive) | > 100 µM (inactive) | > 100 µM (inactive) | > 100 µM (inactive) | > 100 µM (inactive) | > 100 µM (inactive)
Cc1ccc(/C(=C/C=C(C#N)C#N)Sc2cc(Cl)ccc2Cl)cc1 | 5.02 µM (inactive) | – | – | 14 µM (inactive) | 4.76 µM (inactive) | 12.9 µM (inactive) | 2.92 µM (inactive) | 6.31 µM (inactive) | 3.71 µM (inactive) | – | – | – | 12.1 µM (inactive) | 3.21 µM (inactive) | 3.55 µM (inactive) | 1.92 µM (inactive) | – | 2.37 µM (inactive) | 3.18 µM (inactive)
COC(=O)c1cncc2c1CC1C3(C(=O)OC)C=NC(C4C(CO)=CCC43)C21C (centres undefined) | > 100 µM (inactive) | > 100 µM (inactive) | > 100 µM (inactive) | > 100 µM (inactive) | > 100 µM (inactive) | > 100 µM (inactive) | > 100 µM (inactive) | > 100 µM (inactive) | > 100 µM (inactive) | > 100 µM (inactive) | – | – | > 100 µM (inactive) | > 100 µM (inactive) | > 100 µM (inactive) | > 100 µM (inactive) | – | > 100 µM (inactive) | > 100 µM (inactive)
Cc1csc2[n+]1C(=O)/C(=C\c1ccc([N+](=O)[O-])cc1)S2 | 47.2 µM (inactive) | 29.5 µM (inactive) | 25.4 µM (inactive) | – | 25.2 µM (inactive) | 21.2 µM (inactive) | 25.2 µM (inactive) | 42.3 µM (inactive) | 28.5 µM (inactive) | 22.7 µM (inactive) | 16.6 µM (inactive) | 26.8 µM (inactive) | 26.2 µM (inactive) | 18.7 µM (inactive) | – | 24.2 µM (inactive) | – | 22.4 µM (inactive) | 27.3 µM (inactive)
O=C1C=C(Nc2cc(Cl)ccc2Cl)c2ccccc2C1=O | 39 µM (inactive) | – | – | > 100 µM (inactive) | 32.2 µM (inactive) | – | – | 47.6 µM (inactive) | 26.1 µM (inactive) | 26.6 µM (inactive) | 20.9 µM (inactive) | 13.5 µM (inactive) | – | 25.2 µM (inactive) | – | 34.8 µM (inactive) | – | 16 µM (inactive) | –
O=C1/C(=C/c2ccccc2)N=C(c2ccccc2)N1C1Nc2cc3c(cc2S1)NC(N1C(=O)/C(=C/c2ccccc2)N=C1c1ccccc1)S3 (centres undefined) | 64 µM (inactive) | 4.13 µM (inactive) | 11.8 µM (inactive) | 95.7 µM (inactive) | > 100 µM (inactive) | 30.4 µM (inactive) | 30.5 µM (inactive) | 51.1 µM (inactive) | 16.9 µM (inactive) | 16.9 µM (inactive) | 5.4 µM (inactive) | 10 µM (inactive) | 30.3 µM (inactive) | 4.72 µM (inactive) | 0.0258 µM (active) | 53.6 µM (inactive) | – | 4.33 µM (inactive) | 1.82 µM (inactive)
O=Cc1[nH]c(=O)[nH]c(=O)c1C(=O)O | > 100 µM (inactive) | > 100 µM (inactive) | > 100 µM (inactive) | > 100 µM (inactive) | > 100 µM (inactive) | > 100 µM (inactive) | > 100 µM (inactive) | > 100 µM (inactive) | > 100 µM (inactive) | – | > 100 µM (inactive) | > 100 µM (inactive) | > 100 µM (inactive) | > 100 µM (inactive) | > 100 µM (inactive) | > 100 µM (inactive) | – | > 100 µM (inactive) | > 100 µM (inactive)
CC1CC(=O)NC2CC1C2(C)C (centres undefined) | > 100 µM (inactive) | > 100 µM (inactive) | – | – | – | > 100 µM (inactive) | > 100 µM (inactive) | > 100 µM (inactive) | – | – | > 100 µM (inactive) | > 100 µM (inactive) | > 100 µM (inactive) | > 100 µM (inactive) | > 100 µM (inactive) | > 100 µM (inactive) | > 100 µM (inactive) | > 100 µM (inactive) | > 100 µM (inactive)
CON(C)C(=O)C(C)NC(=O)OCc1ccccc1 (centres undefined) | > 100 µM (inactive) | > 100 µM (inactive) | > 100 µM (inactive) | > 100 µM (inactive) | – | – | > 100 µM (inactive) | – | > 100 µM (inactive) | > 100 µM (inactive) | > 100 µM (inactive) | > 100 µM (inactive) | > 100 µM (inactive) | > 100 µM (inactive) | – | > 100 µM (inactive) | > 100 µM (inactive) | > 100 µM (inactive) | –
